Laboratory results published in US20080262228A1, “Metabolites of 5-fluoro-8- quinoline and methods of preparation and uses thereof” (Wyeth, priority 2006, published 2008).
Where a name gives a salt, the structure may show the parent alone.

Tests used:
[1] = Metabolite profiling in liver microsomes and S9; format: in vitro ADME, rat, dog, monkey, human; settings: liver microsomes and S9, 10 μM COMPOUND I, 30 min; species letters not defined
Description: Microsomal incubations for metabolite profiling were similar to those described above for intrinsic clearance determination (see Table 1). Aliquots of COMPOUND I (10 μL), dissolved in DMSO:methanol (1:9), were added to a 96-well plate containing phosphate buffer, and MgCl2 and the liver microsomes at 37° C. using the same automation apparatus as for the stability study described hereinabove. The reactions were initiated by the addition of the UDPGA and NADPH generating system. The final incubation volume for all samples was 1 mL and the length of incubation was 30 min. […] Three 250 μL aliquots were transferred to a 96-well plate containing 900 μL acetonitrile to precipitate the protein. […] The samples were then reconstituted in 150 μL of 20% methanol in water. The three aliquots for each sample were pooled and analyzed by LC/MS.
S9 incubation buffer and cofactors were chosen to allow N-acetylation and carbamoyl glucuronidation in addition to oxidative and glucuronidation pathways possible in liver microsomes. Incubations of sulfamethazine and SCA-136 with liver S9 were used as positive controls for N-acetylation and carbamoyl glucuronidation, respectively. Following a 30 min. incubation, 750 μL from each sample were added to 900 μL acetonitrile. Following centrifugation and evaporation of the supernatant, the samples were reconstituted in 450 μL of 20% methanol in water for analysis by HPLC/UV and LC/MS (see below).
The HPLC system used for mass spectrometric analysis was an Agilent 1100 HPLC (Agilent Technologies, Palo Alto, Calif.) equipped with a binary pump and a diode array UV detector. The UV detector was set to monitor 190-400 nm. Separations were accomplished on a Luna C18 column (150×2.1 mm, 5 μm) (Phenomenex Incorporated, Torrance, Calif.).
The mass spectrometer used for metabolite characterization was a Finnigan LCQ Deca ion trap mass spectrometer (Thermo Electron Corp.). […] Full scan and data dependent MS2 and MS3 mass spectra were recorded. Finnigan Xcalibur software (version 1.3) was used for control of equipment and recording of data from UV and LC/MS analyses.
Chromatographic profiles of COMPOUND I (10 μM) metabolites in incubations with liver microsomes in the presence of NADPH are presented in FIG. 1. Chromatographic profiles of COMPOUND I (10 μM) metabolites in incubations with liver microsomes in the presence of NADPH and UDPGA are presented in FIG. 2. Chromatographic profiles of COMPOUND I (10 μM) metabolites in incubations with liver S9 in the presence of NADPH, UDPGA and acetyl coenzyme A (CoA) are presented in FIG. 3. In incubations containing NADPH, UDPGA and acetyl CoA, fourteen Phase I metabolites (M1, M6, M8, M12, M13, M14, M15, M16, M17, M18, M20, M21, M22 and M23) and six Phase II metabolites (M2, M3, M5, M7, M9 and M10) were observed. In incubations without cofactors, no metabolites were observed.
LC/MS analysis was conducted on extracts of mouse, rat, monkey and human liver microsomes and S9. The mass spectral data for the characterized COMPOUND I metabolites are discussed below.

human 5-HT1A receptor = molecular target: T1, human 5-HT1A receptor (Homo sapiens, UniProt P08908); assay: [3H]-8-OH-DPAT displacement radioligand binding; settings: h5-HT1A.CHO cell membranes, read-out: Ki value for 5-HT1A affinity
T1 construct: expressed in transfected cells
T1 sequence (P08908 1-422): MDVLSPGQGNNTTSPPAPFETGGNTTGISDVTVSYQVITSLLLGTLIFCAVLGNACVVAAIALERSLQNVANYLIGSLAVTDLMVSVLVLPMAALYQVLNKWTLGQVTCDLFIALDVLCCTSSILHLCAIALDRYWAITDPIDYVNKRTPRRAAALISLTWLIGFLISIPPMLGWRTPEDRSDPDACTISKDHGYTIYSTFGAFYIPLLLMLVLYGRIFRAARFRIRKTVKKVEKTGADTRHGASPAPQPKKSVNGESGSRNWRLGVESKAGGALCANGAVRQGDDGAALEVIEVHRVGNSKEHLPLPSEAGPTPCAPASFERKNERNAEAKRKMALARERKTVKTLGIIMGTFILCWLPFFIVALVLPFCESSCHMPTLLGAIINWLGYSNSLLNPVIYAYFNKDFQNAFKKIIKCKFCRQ
Description: A Ki value is reported. The in vitro functional activity of the compounds of this invention is determined by measuring the effect of the compound on forskolin-induced adenylate cyclase activity in the same cell line. 5-HT1A agonists, such as the full agonist 8-OH-DPAT, inhibit forskolin-induced adenylate cyclase activity, as measured by a reduction in cAMP levels. The compounds of this invention display agonist activity as shown by its ability to induce a decrease in cAMP levels. An EC50 value is reported and the maximum response of the test compound is reported as the percent of a full agonist response (the maximum response obtained with the full agonist 8-OH-DPAT=100%). This percent is expressed as an Emax value.
The PCR cloning of the human 5-HT1A receptor subtype from a human genomic library has been described previously (Chanda et al., Mol. Pharmacol., 43:516 (1993)). A stable Chinese hamster ovary cell line expressing the human 5-HT1A receptor subtype (h5-HT1A.CHO cells) was employed throughout this study. Cells were maintained in DMEM supplemented with 10% fetal calf serum, non-essential amino acids and penicillin/streptomycin.
Radioligand binding assays can be performed as described in Dunlop, J. et al., J. Pharmacol. and Toxicol. Methods 40: 47-55 (1998). […] Non-specific binding is determined in the presence of 10 μM 5HT. […]

Species (in which the metabolite was characterized) [1]	Ki (human 5-HT1A receptor) [nM]	SMILES
R, D, M, H	–	COc1cc(N2CCN(C3CCN(c4ccc(F)c5cccnc45)CC3)CC2)c2ncccc2c1 [COMPOUND I, 5-Fluoro-8-{4-[4-(6-methoxyquinolin-8-yl)piperazin-1-yl]piperidin-1-yl}quinoline]
R, D, M, H	0.47	Oc1cc(N2CCN(C3CCN(c4ccc(F)c5cccnc45)CC3)CC2)c2ncccc2c1 [Metabolite M21, 8-{4-[1-(5-fluoroquinolin-8-yl)piperidin-4-yl]piperazin-1-yl}quinolin-6-ol trihydrochloride]
